In one assay the target is T1, Human recombinant sEH (Homo sapiens, UniProt P34913).
T1 construct: made in house; host or cells: Sf9 insect cells (recombinant baculovirus)
T1 sequence (P34913 1-555): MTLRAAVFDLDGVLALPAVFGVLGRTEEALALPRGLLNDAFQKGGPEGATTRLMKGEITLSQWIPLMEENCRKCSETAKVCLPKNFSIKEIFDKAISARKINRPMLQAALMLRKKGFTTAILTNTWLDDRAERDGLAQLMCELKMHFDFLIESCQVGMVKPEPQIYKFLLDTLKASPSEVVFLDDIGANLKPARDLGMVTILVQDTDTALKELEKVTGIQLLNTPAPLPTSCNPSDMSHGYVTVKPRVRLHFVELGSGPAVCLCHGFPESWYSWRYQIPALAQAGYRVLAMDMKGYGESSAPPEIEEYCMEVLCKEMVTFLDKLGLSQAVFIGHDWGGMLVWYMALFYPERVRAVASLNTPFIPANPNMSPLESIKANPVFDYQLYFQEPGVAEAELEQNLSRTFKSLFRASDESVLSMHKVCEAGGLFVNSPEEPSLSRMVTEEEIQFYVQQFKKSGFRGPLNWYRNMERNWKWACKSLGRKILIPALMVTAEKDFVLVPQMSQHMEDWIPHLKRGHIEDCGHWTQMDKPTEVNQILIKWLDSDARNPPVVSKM
The assay can be described thus: Cell-free sEH activity (PHOME fluorescence). The format is biochemical. The following applies: human isolated sEH. The procedure: Human recombinant sEH was expressed in Sf9 insect cells and purified by affinity chromatography. […] Elution with 4-fluorochalcone oxide in PBS pH 7.4 with 1 mM dithiothreitol and 1 mM EDTA yielded sEH, which was dialyzed and concentrated. Purified sEH (60 ng) in 25 mM Tris HCl pH 7 with 0.1 mg/mL bovine serum albumin (BSA) was preincubated with the vehicle (DMSO) or test compounds for 1 min at room temperature. The sEH substrate PHOME (20 μM, Cayman Chemicals) was added to start the enzymatic reaction, which was stopped after 60 min in the dark by the addition of ZnSO4 (200 mM).

Assay [1] has as its target T2, 5-LOX (Homo sapiens, UniProt P09917).
T2 sequence (P09917 1-674): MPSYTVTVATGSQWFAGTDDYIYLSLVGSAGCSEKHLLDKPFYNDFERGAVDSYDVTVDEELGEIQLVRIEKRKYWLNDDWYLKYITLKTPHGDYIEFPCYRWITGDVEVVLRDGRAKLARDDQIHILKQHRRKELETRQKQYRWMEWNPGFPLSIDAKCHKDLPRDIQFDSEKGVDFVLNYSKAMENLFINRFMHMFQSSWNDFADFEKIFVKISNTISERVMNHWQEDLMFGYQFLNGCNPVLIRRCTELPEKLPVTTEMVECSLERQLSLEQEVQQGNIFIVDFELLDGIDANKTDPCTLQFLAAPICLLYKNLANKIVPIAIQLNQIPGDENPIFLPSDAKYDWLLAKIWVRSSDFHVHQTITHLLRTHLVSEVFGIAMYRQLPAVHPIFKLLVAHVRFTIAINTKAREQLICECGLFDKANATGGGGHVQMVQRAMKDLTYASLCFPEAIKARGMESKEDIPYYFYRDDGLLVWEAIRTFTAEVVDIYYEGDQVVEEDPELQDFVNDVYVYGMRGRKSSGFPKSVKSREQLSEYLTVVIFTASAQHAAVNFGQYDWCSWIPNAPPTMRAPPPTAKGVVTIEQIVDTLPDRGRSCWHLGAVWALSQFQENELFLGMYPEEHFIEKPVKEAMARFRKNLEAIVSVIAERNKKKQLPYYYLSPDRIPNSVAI
The assay can be described thus: 5-LOX product formation in human activated PMNL (A23187). The format is cell-based. The following applies: for remaining activity at 10 µM / IC50: human activated PMNL; for remaining activity at 10 µM: read-out: 5-LOX residual activity in PMNL (%) at 10 μM; for remaining activity: PMNL, read-out: 5-LO residual activity in PMNL (%). Set-up: Freshly isolated PMNL (5 × 10^6) suspended in PBS pH 7.4 with 1 mg/mL glucose were preincubated with the test compounds; endogenous in cells; host or cells: human PMNL from donor blood; remaining activity: dose or concentration left out as unconfirmed. The procedure: Human PMNL were freshly isolated from leukocyte concentrates that were obtained from the Institute for Transfusion Medicine of the University Hospital Jena (Germany). […] These volunteers regularly donated blood (every 8–12 weeks) and were physically inspected by a clinician. […] Leukocytes were concentrated by centrifugation (4000g/20 min/20 °C) of freshly withdrawn blood. […] PMNL were obtained from the cell pellet. […] The reaction was stopped with an equal volume of methanol containing PGB1 (200 ng) as internal standard. Major 5-LOX products (all-trans isomers of LTB and 5-HETE, and additionally LTB4) were extracted and analyzed by RP-HPLC as described for the determination of cell-free 5-LOX activity.

Assay [2] concerns the target T2, 5-LOX. The assay can be described thus: Cell-free 5-LOX activity assay. It counts as biochemical. Set-up: made in house; host or cells: Escherichia coli Bl21 (DE3). To be noted: for IC50: human isolated 5-LOX; for inhibition of 5-LOX activity, times lower than 6: isolated 5-LOX, relative to compound 6. The procedure:
Human recombinant 5-LOX was expressed in Escherichia coli Bl21 (DE3) cells that were transformed with the plasmid pT3-5LO (wt 5-LOX) and purified on an adenosine triphosphate (ATP)-agarose column by affinity chromatography.[40],[41] In a first step, E. coli was lysed in 50 mM triethanolamine/HCl pH 8.0 with ethylenediamine tetraacetic acid (EDTA) (5 mM), soybean trypsin inhibitor (60 μg/mL), phenylmethanesulfonyl fluoride (1 mM), dithiothreitol (1 mM), and lysozyme (1 mg/mL) and sonicated 3 times for 15 s. The homogenate was centrifuged at 40,000g for 20 min at 4 °C. The supernatant was transferred to an ATP-agarose column (Sigma-Aldrich, Deisenhofen, Germany), which was sequentially washed with phosphate-buffered saline (PBS) pH 7.4, 1 mM EDTA, 50 mM phosphate buffer pH 7.4, 0.5 M NaCl, 1 mM EDTA, and finally 50 mM phosphate buffer pH 7.4 plus 1 mM EDTA. The enzyme was eluted with 50 mM phosphate buffer pH 7.4, 1 mM EDTA, and 20 mM ATP.
5-LOX product formation was started by the addition of 20 μM arachidonic acid (Sigma-Aldrich) and CaCl2 (2 mM) and stopped by the addition of an equal volume of ice-cold methanol containing PGB1 (200 ng) as internal standard after 10 min at 37 °C.

As a reminder, the IC50 is the concentration that inhibits the measured activity by half.

As for `O=C(Nc1ccc2c(c1)CCN2Cc1ccc(F)cc1)C12C[C@H]3C[C@@H](C1)C[C@@H](C2)C3` [Compound 3, (3R,5R,7R)-N-(1-(4-Fluorobenzyl)indolin-5-yl)adamantane-1-carboxamide], the IC50 on Human recombinant sEH came to 0.285 ± 0.0312 µM. Further, on 5-LOX [1], the remaining activity at 10 µM was 53.2 ± 9.9% and the remaining activity was 53.2 ± 9.9%. Moreover, the IC50 against 5-LOX [2] came out at 0.074 ± 0.018 µM.

With `CC1(C)C2CC[C@@]1(CS(=O)(=O)Nc1ccc3c(c1)CCN3Cc1ccc(F)cc1)C(=O)C2` [Compound 4, 1-((1S)-7,7-Dimethyl-2-oxobicyclo[2.2.1]heptan-1-yl)-N-(1-(4-fluorobenzyl)indolin-5-yl)methanesulfonamide], the IC50 on Human recombinant sEH came out at 1.8 ± 0.46 µM. Moreover, at 5-LOX [1], the remaining activity at 10 µM worked out at 2.5 ± 2.5%, the remaining activity was 2.5 ± 2.5% and the half-maximal inhibitory concentration (IC50) was 2.56 µM. In addition, at 5-LOX [2], the IC50 was 0.171 ± 0.066 µM and the “inhibition of 5-LOX activity, times lower than 6” value was “around 2.5 times”.

Turning to `O=C(NCC12C[C@H]3C[C@@H](C1)C[C@@H](C2)C3)Nc1ccc2c(c1)CCN2Cc1ccc(F)cc1` [Compound 5, 1-(((3R,5R,7R)-Adamantan-1-yl)methyl)-3-(1-(4-fluorobenzyl)indolin-5-yl)urea], at Human recombinant sEH, the IC50 is 0.0111 ± 0.006 µM. Also, at 5-LOX [1], the remaining activity at 10 µM turned out to be 79.7 ± 2.8% and the remaining activity was found to be 73.7 ± 2.8%. At 5-LOX [2], this compound yielded an IC50 of 0.078 ± 0.053 µM.

For `O=C(NCc1cccc2ccccc12)Nc1ccc2c(c1)CCN2Cc1ccc(F)cc1` [Compound 7, 1-(1-(4-Fluorobenzyl)indolin-5-yl)-3-(naphthalen-1-ylmethyl)urea], on Human recombinant sEH, the IC50 was determined as 0.0361 ± 0.0075 µM. On 5-LOX [1], the remaining activity at 10 µM amounted to 56.3 ± 5.1% and the remaining activity came to 56.3 ± 5.1%. In addition, on 5-LOX [2], half-maximal inhibition (IC50) required 0.148 ± 0.028 µM and the “inhibition of 5-LOX activity, times lower than 6” value is reported as ~2 times.

Turning to `CN1CCCN(CCNC(=O)Nc2ccc3c(c2)CCN3Cc2ccc(F)cc2)CC1` [Compound 8, 1-(1-(4-Fluorobenzyl)indolin-5-yl)-3-(2-(4-methyl-1,4-diazepan-1-yl)ethyl)urea], the IC50 at Human recombinant sEH is > 10 µM. For the same compound, on 5-LOX [1], the remaining activity at 10 µM is 71.1 ± 6.6% and the remaining activity was found to be 71.1 ± 6.6%. The IC50 against 5-LOX [2] is > 1 µM.

Consider `Fc1ccc(CN2CCc3cc(NC(=S)NCC45C[C@H]6C[C@@H](C4)C[C@@H](C5)C6)ccc32)cc1` [Compound 10, 1-(((3R,5R,7R)-Adamantan-1-yl)methyl)-3-(1-(4-fluorobenzyl)indolin-5-yl)thiourea], for which the IC50 at Human recombinant sEH was 0.288 ± 0.22 µM; at 5-LOX [2], > 1 µM.

As to `O=C(NCC12C[C@H]3C[C@@H](C1)C[C@@H](C2)C3)Nc1ccc2c(c1)CCN2Cc1ccc(C(=O)O)cc1` [Compound 14, 4-((5-(3-(((3R,5R,7R)-Adamantan-1-yl)methyl)ureido)indolin-1-yl)methyl)benzoic Acid], the IC50 at Human recombinant sEH was 0.0241 ± 0.0041 µM. On 5-LOX [1], the remaining activity at 10 µM was 57.7 ± 9.6% and the remaining activity is 57.7 ± 9.6%. Also, the IC50 against 5-LOX [2] is > 1 µM.

Take `COC(=O)c1ccc(Cn2ccc3cc(NC(=O)NCC45C[C@H]6C[C@@H](C4)C[C@@H](C5)C6)ccc32)cc1` [Compound 29, Methyl 4-((5-(3-(((3R,5R,7R)-Adamantan-1-yl)methyl)ureido)-1H-indol-1-yl)methyl)benzoate]: the IC50 at Human recombinant sEH turned out to be 0.0114 ± 0.0036 µM. Also, on 5-LOX [1], the remaining activity at 10 µM turned out to be 65.1 ± 9.4% and the remaining activity worked out at 65.1 ± 9.4%. Moreover, the IC50 against 5-LOX [2] is > 1 µM.

Turning to `COC(=O)CCCn1ccc2cc(NC(=O)NCC34C[C@H]5C[C@@H](C3)C[C@@H](C4)C5)ccc21` [Compound 32, Methyl 4-(5-(3-(((3R,5R,7R)-Adamantan-1-yl)methyl)ureido)-1H-indol-1-yl)butanoate], the IC50 at Human recombinant sEH was 0.0213 ± 0.0119 µM. In addition, on 5-LOX [1], the remaining activity at 10 µM is 30.1 ± 4.8%; the remaining activity amounted to 30.1 ± 4.8%; the midpoint of inhibition, the IC50, lay at 6.83 ± 0.84 µM. At 5-LOX [2], the IC50 was > 1 µM.

Turning to `O=C(Nc1ccc2c(ccn2Cc2ccc(F)cc2)c1)NC12C[C@H]3C[C@@H](C1)C[C@@H](C2)C3` [Compound 33, 1-((3S,5S,7S)-Adamantan-1-yl)-3-(1-(4-fluorobenzyl)-1H-indol-5-yl)urea], the figures for the IC50 on Human recombinant sEH and on 5-LOX [2] were 0.0134 ± 0.0031 µM and > 1 µM, respectively. Besides, the remaining activity at 5-LOX [1] turned out to be 97.8 ± 0.3%.

As to `O=C(NCC12C[C@H]3C[C@@H](C1)C[C@@H](C2)C3)Nc1ccc2c(ccn2Cc2ccc(C(=O)O)cc2)c1` [Compound 37, 4-((5-(3-(((3R,5R,7R)-Adamantan-1-yl)methyl)ureido)-1H-indol-1-yl)methyl)benzoic Acid], on Human recombinant sEH, the IC50 amounted to 0.0151 ± 0.0077 µM. On 5-LOX [1], the remaining activity at 10 µM stood at 2.1 ± 1.1%, the remaining activity was found to be 2.1 ± 1.1% and half-maximal inhibition (IC50) was put at 4.4 ± 0.42 µM. The IC50 against 5-LOX [2] was > 1 µM.

With `O=C(O)CCCn1ccc2cc(NC(=O)NCC34C[C@H]5C[C@@H](C3)C[C@@H](C4)C5)ccc21` [Compound 38, 4-(5-(3-(((3R,5R,7R)-Adamantan-1-yl)methyl)ureido)-1H-indol-1-yl)butanoic Acid], at Human recombinant sEH, the IC50 was 0.0533 ± 0.0159 µM. On 5-LOX [1], the remaining activity at 10 µM came out at 41.2 ± 7.8%, the remaining activity turned out to be 41.2 ± 7.8% and the IC50 is 8.15 ± 1.86 µM. Further, the IC50 on 5-LOX [2] was > 1 µM.

Take `NCCCn1ccc2cc(NC(=O)NCC34CC5CC(CC(C5)C3)C4)ccc21` [Compound 39, 1-(((3R,5R,7R)-Adamantan-1-yl)methyl)-3-(1-(3-aminopropyl)-1H-indol-5-yl)urea]: the 50% inhibitory concentration (IC50) at Human recombinant sEH is 0.0272 ± 0.0118 µM. Also, at 5-LOX [1], the remaining activity at 10 µM is 51.8 ± 13% and the remaining activity worked out at 51.8 ± 13%. For the same compound, at 5-LOX [2], the IC50 is > 1 µM.

As to `NCc1ccc(Cn2ccc3cc(NC(=O)NCC45C[C@H]6C[C@@H](C4)C[C@@H](C5)C6)ccc32)cc1` [Compound 42, 1-(((3R,5R,7R)-Adamantan-1-yl)methyl)-3-(1-(4-(aminomethyl)benzyl)-1H-indol-5-yl)urea], the IC50 at Human recombinant sEH came out at 0.0149 ± 0.0046 µM. Also, on 5-LOX [1], the remaining activity at 10 µM came out at 6.6 ± 4%, the remaining activity came out at 6.6 ± 4% and the half-maximal inhibitory concentration (IC50) worked out at 6.19 ± 2.41 µM. Also, the IC50 on 5-LOX [2] is > 1 µM.

The values above are taken from article PMC10350924, “Design, Synthesis, and Pharmacological Characterization of a Potent Soluble Epoxide Hydrolase Inhibitor for the Treatment of Acute Pancreatitis” (Journal of Medicinal Chemistry, 2023).
